Laboratory results reported in patent publication US10882825B2, “Non-solvated crystal, preparation method and application thereof” (SHENZHEN CHIPSCREEN BIOSCIENCES CO., LTD., priority 2016, dated 2021).

Experiment: Stability test of the crystal form (high temperature, high humidity, strong light irradiation; X-ray powder diffraction and HPLC content)
Format: physicochemical
Settings: high temperature (60° C.), high humidity (90%), strong light irradiation (4500 Lx); day 0 vs day 10
Procedure: Test conditions of X-ray powder diffraction: instrument: D/MAX-1200 (Rigaku, Japan); radiation source: Cu-Kα (40 kV, 40 mA).
Test conditions of stability: high temperature (60° C.), high humidity (90%) and strong light irradiation (4500 Lx) tests are performed according to the Chinese Pharmacopoeia 2010 edition, Part II, Appendix XIX C.
Test conditions of HPLC: instrument: Dionex UltiMate3000; column: Shim-pack VP-ODS 5 μm 250 L×4.6; detector: VWD-3100, detection wavelength: 256 nm; mobile phase: methanol-water-glacial acetic acid (30:70:0.4); flow rate: 1.0 mL/min, column temperature: 30° C.
High temperature (60° C.), high humidity (90%) and strong light irradiation (4500 Lx) tests of the non-solvated crystal A of example 1, non-solvated crystal B of example 2, and non-solvated crystal C of example 3 were performed according to the Chinese Pharmacopoeia 2010 edition, Part II, Appendix XIX C. Samples on day 0 and day 10 respectively were taken to determine the X-ray powder diffraction pattern and content (HPLC method).

COc1ccc2c(Oc3ccc4c(C(=O)Nc5ccccc5N)cccc4c3)ccnc2c1 [non-solvated crystal A, N-(2-aminophenyl)-6-(7-methoxyquinoline-4-oxo)-1-naphthaleneformamide]
content (HPLC method) after stability test: does not change significantly | crystal form (X-ray powder diffraction pattern) after stability test: remain unchanged in their original crystal forms
